Earlier results as cited in patent US10463731B2, “Adjuvant combinations comprising alpha-galactosylceramide or iGb3, CD40 agonists and antigen” (IMMURX, INC., priority 2007, dated 2019).

Test system: tumors
Settings: monotherapy, mice

CCCCCCCCCCCCCCCCCCCCCCCCCC(=O)N[C@@H](CO[C@H]1O[C@H](CO)[C@H](O)[C@H](O)[C@H]1O)[C@H](O)[C@H](O)CCCCCCCCCCCCCC [α-Gal-Cer, alpha-galactosylceramide]
enhancement of immunity to tumors: limited success
